In PubChem BioAssay (NCI) one finds GI50 and TGI data, which are given here for seven compounds.

Test systems include UO-31 renal; CAKI-1 renal; SK-OV-3 ovarian; SF-268 CNS; NCI-H23 lung; RPMI-8226 leukemia; HCT-15 colon; SW-620 colon; SN12C renal; RXF 393 renal.
Experiment in all cases: DTP human tumour cell line panel, 48 h

The structures appear in SMILES notation.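 Exposure lasted 48 hours, with cells grown in 96-well plates and compounds tested at five concentrations. The concentration for 50% growth inhibition is given as GI50. TGI: total growth inhibition.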

Consider `Cc1ccc(-c2nc([P+](c3ccccc3)(c3ccccc3)c3ccccc3)c(Nc3ccccc3)o2)cc1`, for which the GI50 was 0.421 µM in the experiment on UO-31 renal; 1.08 µM in the experiment with CAKI-1 renal; 1.44 µM in the experiment on SK-OV-3 ovarian; 1.15 µM with SF-268 CNS; 0.344 µM with NCI-H23 lung; 0.227 µM with RPMI-8226 leukemia. Further, the GI50 was 0.487 µM in the experiment with HCT-15 colon, 0.446 µM with SW-620 colon, 0.541 µM in the experiment on SN12C renal and 0.926 µM with RXF 393 renal. Moreover, the TGI is 1.73 µM in the experiment with UO-31 renal; 2.34 µM in the experiment on CAKI-1 renal; 3.08 µM in the experiment on SK-OV-3 ovarian; 2.53 µM with SF-268 CNS; 1.28 µM in the experiment on NCI-H23 lung; 0.739 µM with RPMI-8226 leukemia. The total growth inhibition concentration (TGI) came out at 1.81 µM with HCT-15 colon, 1.66 µM in the experiment on SW-620 colon, 1.84 µM with SN12C renal and 2.34 µM in the experiment with RXF 393 renal.

Consider `C/C=C/COC(=O)CO[N+](=O)[O-]`, for which the TGI in the experiment with UO-31 renal, in the experiment with CAKI-1 renal, in the experiment with SK-OV-3 ovarian, with SF-268 CNS, in the experiment on NCI-H23 lung and in the experiment on RPMI-8226 leukemia was greater than 100 µM throughout. In addition, the TGI in the experiment on HCT-15 colon, in the experiment with SW-620 colon, in the experiment on SN12C renal and with RXF 393 renal was greater than 100 µM throughout.

As to `O=c1[nH]c(=O)n(C2OC(CO)C(O)C2O)cc1OCC(F)(F)F` (centres undefined), the TGI in the experiment with UO-31 renal, in the experiment on CAKI-1 renal, with SK-OV-3 ovarian, with SF-268 CNS, in the experiment with NCI-H23 lung and with RPMI-8226 leukemia was greater than 100 µM in each case. Besides, the TGI in the experiment on HCT-15 colon, with SW-620 colon, in the experiment on SN12C renal and in the experiment with RXF 393 renal was greater than 100 µM in each case.

For `CCOC(=O)C(CNc1ccc(O)cc1)NC(=O)c1ccccc1` (centres undefined), the TGI with UO-31 renal, in the experiment with CAKI-1 renal, in the experiment with SK-OV-3 ovarian, in the experiment on SF-268 CNS, in the experiment with NCI-H23 lung and in the experiment with RPMI-8226 leukemia was greater than 100 µM each time. Moreover, the TGI in the experiment on HCT-15 colon, in the experiment on SW-620 colon, with SN12C renal and in the experiment with RXF 393 renal was greater than 100 µM throughout.

As to `Cc1c(C(N)=O)sc2c1c(=O)n(Cc1ccccc1)c1nnc(-c3ccc(Br)cc3)n21`, the GI50 with UO-31 renal was 1.4 µM; in the experiment with CAKI-1 renal it was 0.431 µM; in the experiment with SK-OV-3 ovarian, 2.97 µM; with SF-268 CNS it was 1.4 µM; in the experiment on NCI-H23 lung, 3.11 µM; in the experiment with RPMI-8226 leukemia it was 4.72 µM. The GI50 in the experiment on HCT-15 colon was 0.705 µM; in the experiment with SW-620 colon, 2.98 µM; in the experiment with SN12C renal, 2.36 µM; with RXF 393 renal it was 1.81 µM. The TGI in the experiment with UO-31 renal worked out at 11.7 µM; in the experiment with CAKI-1 renal it was 6.96 µM; in the experiment on SK-OV-3 ovarian it was 16.3 µM; with SF-268 CNS, 13.4 µM; with NCI-H23 lung, 15.2 µM; in the experiment on RPMI-8226 leukemia, 47.7 µM. Moreover, the TGI in the experiment with HCT-15 colon turned out to be 17.9 µM; with SW-620 colon, 18.9 µM; in the experiment with SN12C renal, 14.1 µM; in the experiment with RXF 393 renal, 7.15 µM.

For `O=C(C[P+](c1ccccc1)(c1ccccc1)c1ccccc1)C[P+](c1ccccc1)(c1ccccc1)c1ccccc1`, the GI50 in the experiment on UO-31 renal is 0.218 µM; in the experiment with CAKI-1 renal, 0.161 µM; in the experiment on SK-OV-3 ovarian, 1.49 µM; in the experiment on SF-268 CNS, 0.591 µM; with NCI-H23 lung it was 0.253 µM; with RPMI-8226 leukemia it was 0.271 µM. Also, the GI50 in the experiment on HCT-15 colon was 0.241 µM; in the experiment on SW-620 colon it was 0.242 µM; with SN12C renal, 0.682 µM; in the experiment with RXF 393 renal it was 0.2 µM. Moreover, the TGI in the experiment on UO-31 renal came to 0.855 µM; in the experiment with CAKI-1 renal, 0.357 µM; in the experiment on SK-OV-3 ovarian, 3.17 µM; in the experiment on SF-268 CNS it was 1.95 µM; in the experiment on NCI-H23 lung it was 0.888 µM; with RPMI-8226 leukemia it was 1.81 µM. Moreover, the TGI with HCT-15 colon amounted to 1.6 µM; in the experiment on SW-620 colon, 0.816 µM; in the experiment on SN12C renal, 2.14 µM; in the experiment with RXF 393 renal it was 0.605 µM.

Take `CCOC(=O)c1cnn2c3ccccc3n(S(=O)(=O)c3ccc(OC)cc3)c12`: the GI50 with UO-31 renal was 0.56 µM; in the experiment with CAKI-1 renal, 0.204 µM; in the experiment on SK-OV-3 ovarian, 0.786 µM; with SF-268 CNS, 2.33 µM; with NCI-H23 lung, 0.393 µM; in the experiment with RPMI-8226 leukemia it was 0.37 µM. Further, the GI50 is 0.119 µM in the experiment with HCT-15 colon, 0.269 µM with SW-620 colon, 0.625 µM with SN12C renal and 0.232 µM in the experiment on RXF 393 renal. Besides, the TGI in the experiment with UO-31 renal was greater than 78.7 µM; in the experiment on CAKI-1 renal, greater than 83.7 µM; with SK-OV-3 ovarian, greater than 100 µM; in the experiment with SF-268 CNS it was greater than 100 µM; with NCI-H23 lung it was greater than 100 µM; in the experiment on RPMI-8226 leukemia, 28.2 µM. Besides, the TGI was greater than 100 µM with HCT-15 colon, greater than 100 µM in the experiment with SW-620 colon and greater than 57.5 µM with SN12C renal.

One may read the GI50 as the concentration at which growth is held to half of that of the control. A word on the TGI: it is the concentration at which net growth stops. Higher therefore signals lower sensitivity of the cells.
